Laboratory results published in article PMC7405012, “Detection of Chaetomium globosum, Ch. cochliodes and Ch. rectangulare during the Diversity Tracking of Mycotoxin-Producing Chaetomium-like Isolates Obtained in Buildings in Finland” (Toxins, 2020).
In brackets after ≈: the same amount, converted by molar mass. Read-outs that look alike come from different tables or passages of the source.

Assays:
resting PK-15 cells = assay: Mitochondrial damage test: accelerated glucose consumption and extracellular acidosis; assay type: cell-based, porcine; settings: for sublethal concentration that promoted the acceleration of glycolysis: PK-15 cells, positive controls for mitochondrial toxicity; for EC50: Sus scrofa
Protocol: The mitochondria were depolarized in sperm cells exposed to sublethal concentrations of chaetoglobosin A (Figure 5) and to the chaetoglobosin-containing extracts (Table 3). This observation aroused the suspicion regarding mitochondrial toxicity. The mitochondrial toxicity of the extracts containing chaetoglobosin was assessed by measuring the accelerated glucose consumption in resting PK-15 cells. […] By contrast, the positive controls for mitochondrial toxicity—enniatin B, moniliformin and valinomycin at sublethal concentrations of 1.5, 4 and 5 ng mL^−1, respectively—promoted the acceleration of glycolysis.
The test for mitochondrial damage as indicated by accelerated glucose consumption and extracellular acidosis was described earlier. The PK-15 cells were grown in 8-well flat-bottom chamber glass slides, seeded to a density of 4 × 10^4 cells mL^−1, in the respective medium for 48 h. The twofold serially diluted test substances or the vehicle only was dispensed into the wells. The glucose content of the wells was measured by using a glucose meter (Precision Xceed; Abbott Diabetes Care Ltd., Berkshire, United Kingdom). In wells that received nothing or the vehicle only, the glucose concentration decreased from an initial concentration (0 h) of 12 to 6 mM (24 h), but the pH remained as pH of 7.2. A glucose concentration after 24 h of ≤3 mM indicated excessive glucose consumption. Prior to the measurement of the pH, the chamber slides were transferred into ambient air for 1 h to allow CO2 to evaporate. A pH drop of 0.5 units in the toxin-exposed well compared to the vehicle only was considered proof of acidosis. Mitochondrial depolarization (ΔΨm assay) was read by a fluorescence microscope after 26 h of exposure to the toxicants from the monolayers double stained with the membrane potential-responsive fluorogenic dye JC-1 and with propidium iodide to assess the relaxing of the plasma membrane permeability barrier, similar to what was reported previously for sperm cells (27).

[1] = system: porcine kidney cells (PK-15); assay: cells; assay type: cell-based; settings: for EC50: Sus scrofa, 48 h, read-out: EC50 ICP PK-15 2 days
boar spermatozoa [2] = assay: cells; assay type: cell-based; settings: for EC50: Spermatozoa, read-out: EC50 BSMIM Boar Sperm 20 min
[3] = system: murine neuroblastoma cells (MNA); assay: Inhibition of cell proliferation (ICP) assay, MNA; assay type: cell-based; settings: MNA, 2 days, 37 °C
Protocol: The plate-grown biomass of the fungal pure cultures (100–300 mg) was extracted with ethanol as described earlier. The toxicity assays, namely BSMI assay after exposure for 30 min (rapid inhibition) and for one day (slow inhibition), SMID assay and ICP assay, were all described previously. The toxicity assays involving the ethanol extracts obtained from pure fungal cultures were performed using porcine cells (sperms and somatic cell lines) as indicators according to methods described before. The calculation of EC50—the half maximal effective concentration for the ethanol-dry substances and pure mycotoxins in the BSMI, SMID and ICP assays—were described previously.
The continuous cell line PK-15 (porcine kidney cells) and a malignant cell line (MNA cell line) provided by EVIRA (Helsinki, Finland) were used in the ICP assay. 5,5′,6,6′-tetrachloro-1,1′,3,3′-tetraethyl-benzimidazolylcarbocyanine iodide (JC-1, 3520-43-2), PI (25535-16-4) and calcein-AM (148504-34-1) were obtained from Invitrogen (Carlsbad, CA, USA). Alamethicin A4665 (T. arundinaceum) (CAS 27061-78-5), a mixture of alamethicin F50 peptaibols (MW 1962, 1976, 1976 and 1990), chaetoglobosin A (CAS 50335-03-0), sterigmatocystin (CAS 10048-13-5) and ochratoxin A (CAS 303-47-9) were obtained from Sigma-Aldrich (St. Louis, MO, USA). Malt extract and tryptic soy agar were obtained from Scharlab (Barcelona, Spain). The other chemicals were of analytical grade and were purchased from local suppliers. The biocides and the wetting agent Genapol-080 were purchased from Sigma-Aldrich Finland. The fungicide Boracol 10Rh was obtained from a local supplier. The selected biocides were Borax (600 µg mL^−1; sodium tetraborate, CAS: 1330-43-4), Boracol 10Rh containing disodium octaborate tetrahydrate (CAS: 12280-03-04) and didecyldimethylammonium chloride [CAS: 7173-51-5]), PHMB (CAS: 27083-27-8), phenoxyethanol (CAS: 122-99-6), chloramine, triclosan (5-Chloro-2-(2,4-dichlorophenoxy)phenol, CAS: 3380-34-5) and the wetting agent Genapol X-080 (CAS: 9043-30-5). Genapol X-080 and the biocides were purchased from Sigma-Aldrich, except for Boracol 10Rh, which was purchased from a local supplier.

resting boar spermatozoa [4] = assay: Plasma membrane integrity of resting spermatozoa (SMIDR), calcein-AM + PI; assay type: cell-based; settings: resting boar sperm, 24 °C; for CC50: Spermatozoa, 48 h, 2 days, read-out: EC50 Lethal Toxicity SMIDR 2 days
Protocol: (§1) The long-term effects of exposure to chaetoglobosin A and to the chaetoglobosin-containing extracts of the Ch. globosum MTAV35 and MTAV37 strains were measured in resting sperm cells exposed at 24 °C for two days. Three criteria were assessed: (1) the motility inhibition of resting boar spermatozoa (BSMIR); (2) the change in mitochondrial membrane potential (ΔΨ) observed using the potentiometric dye JC-1; and (3) the plasma membrane integrity (SMIDR) observed using the viability stain calcein-AM + propidium iodide (PI). […] By contrast, the EC50 concentrations in the SMIDR assays, which measured the lethal damages in plasma membrane after incubation for two days, were >50 times higher (Figure 5 and Table 3).
(§2) The boar sperm cells exposed for 2 days to commercial chaetoglobosin A and the crude extract of MTAV35 and MTAV37 were double-stained with the viability stains PI + calcein–AM, the SMIDR assay, as described earlier. The staining protocol was as follows: 200 μL of extended boar semen containing 27 × 10^6 sperm cells mL^−1 was mixed with 200 μL PBS containing 3 μg mL^−1 calcein-AM and 10 μg mL^−1 PI. The ΔΨm assay monitored the mitochondrial membrane potential changes (ΔΨm) by staining with the lipophilic potentiometric dye JC-1 as described by Mikkola et al. (2015). For the staining with JC-1 (35 µg mL^−1), 200 µL of the sperm cells were shaken and incubated at 37 °C for 5 min. After staining, the cells exposed in the SMIDR and the ΔΨm assays were inspected with fluorescence microscope using 400× magnification (Nikon Eclipse E600, Nikon Corporation, Tokyo Japan) with filters BP 450–490 nm/LP 520. The calcein–AM-stained cells with intact plasma membranes produced green fluorescence, whereas the PI-dyed cells with damaged plasma membranes produced red fluorescence. In JC-1 stained sperm cells, mitochondria with high membrane potential emitted yellow fluorescence, whereas depolarized mitochondria fluoresced green.
(§3) The EC50 concentration in these microscopic assays was defined as the lowest concentration where the ratio of cells similar to those in the solvent control was less than 50%. This EC50 fitted between EC90 and EC10 observed in the microscope calculating ca. 100–120 sperm cells from three microscopic fields. The maximal difference between four parallel tests in each of the two methods was one dilution step. The assays were calibrated with triclosan.

resting boar spermatozoa [5] = assay: Mitochondrial membrane potential (ΔΨm) assay with JC-1 in resting spermatozoa; assay type: cell-based; settings: resting boar sperm; for EC50: Spermatozoa
Protocol: as §1, with “Three” for “The long-term effects of exposure to chaetoglobosin A and to the chaetoglobosin-containing extracts of the Ch. globosum MTAV35 and MTAV37 strains were measured in resting sperm cells exposed at 24 °C for two days. Three”
as §2, §3

resting boar spermatozoa [6] = assay: Motility inhibition of resting boar spermatozoa (BSMIR); assay type: cell-based; settings: resting boar sperm; for EC50: Spermatozoa
Protocol: as §1, with “Three” for “The long-term effects of exposure to chaetoglobosin A and to the chaetoglobosin-containing extracts of the Ch. globosum MTAV35 and MTAV37 strains were measured in resting sperm cells exposed at 24 °C for two days. Three”
The procedure for the BSMIR assay measuring sublethal toxicity as motility inhibition, i.e., inability to respond to induction of motility in resting sperm cells is described below: The ethanol solutions (0.5–10 μL) were dispensed in 2000 μL of extended boar semen (Figen Ltd., Tuomikylä, Finland, density of 27 × 10^6 sperms mL^−1) incubated at 24 °C, and motility of the sperms was inspected in the phase-contrast microscope (400× magnification) with a heated stage, (Olympus CKX41, Tokyo, Japan; magnification 400×) and an image recording software (Cellsense® standard version 11.0.06, Olympus Soft Imaging Solutions GmbH, Münster, Germany, 2012) as described previously. […] The EC50 was calculated from the equation of the straight line between EC50-40 and EC80-90: Y = −ΔY/ΔX × X + C where Y is the motility closest to 50% of the motility of the solvent control, X is the EC50 concentration and C is a constant between 100% and 60%. All tests were run in triplicates and differences between replicate tests were within one dilution step (2-fold). The sperm assays were calibrated with triclosan and valinomycin.

boar spermatozoa [7] = assay: cells; assay type: cell-based; settings: for EC50: Spermatozoa, read-out: EC50 SMIDM Boar Sperm 2 h
[8] = 20 min, motile boar sperm, 20 min, 37 °C
[9] = 24 h, PK-15, 1 day, read-out: EC50 Sublethal Toxicity Acceleration of glycolysis 1 day
[10] = 48 h, PK-15, 2 days, read-out: EC50 Sublethal Toxicity Acidosis 2 days
[11] = 48 h, JC-1, 2 days, read-out: EC50 Sublethal Toxicity Depletion of ΔΨm 2 days
[12] = 48 h, 24 °C, 2 days, read-out: EC50 Sublethal Toxicity BSMIR 2 days

Compound	EC50 Sublethal Toxicity Acceleration of glycolysis 1 day (resting PK-15 cells; PK-15, 1 day)	EC50 Sublethal Toxicity Acidosis 2 days (resting PK-15 cells; PK-15, 2 days)	EC50 Sublethal Toxicity Depletion of ΔΨm 2 days (resting boar spermatozoa [5]; JC-1, 2 days)	EC50 Sublethal Toxicity BSMIR 2 days (resting boar spermatozoa [6]; 24 °C, 2 days) [µg/mL]	sublethal concentration that promoted the acceleration of glycolysis (resting PK-15 cells) [ng/mL]	lethal concentration in resting PK-15 cells (number in parenthesis) (resting PK-15 cells) [µg/mL]	EC50 ([1]; PK-15, 2 days, 37 °C) [µg/mL]	EC50 (boar spermatozoa [2]; [8]) [µg/mL]	EC50 (boar spermatozoa [7]; motile boar sperm, 2 h, 37 °C) [µg/mL]	EC50 (resting PK-15 cells; [9]) [µg/mL]	EC50 (resting PK-15 cells; [10]) [µg/mL]	CC50 (resting boar spermatozoa [4]) [µg/mL]	EC50 (resting boar spermatozoa [5]; [11]) [ng/mL]	EC50 (resting boar spermatozoa [6]; [12]) [ng/mL]	other results
Alamethicin	None	None	0.2 µg/mL	0.2	–	–	–	–	–	–	–	–	–	–	EC50 ICP PK-15 2 days ([1]; PK-15, 2 days, 37 °C): 8 µg dry wt mL^−1; EC50 BSMIM Boar Sperm 20 min (boar spermatozoa [2]; motile boar sperm, 20 min, 37 °C): 5 µg dry wt mL^−1; EC50 ICP MNA 2 days [3]: 8 µg dry wt mL^−1; EC50 Lethal Toxicity SMIDR 2 days (resting boar spermatozoa [4]): 0.2 µg/mL; EC50 SMIDM Boar Sperm 2 h (boar spermatozoa [7]; motile boar sperm, 2 h, 37 °C): 1 µg dry wt mL^−1
O=c1cc(O)c1=O [Moniliformin]	4 µg/mL	4 µg/mL (≈ 40.8 µM)	None	2 (≈ 20.4 µM)	4	40	–	–	–	–	–	–	–	–	–
CC1=C2C(=CO[C@H](C)[C@H]2C)C(O)=C(C(=O)O)C1=O [Citrinin, reference compound]	–	–	–	–	–	–	10 (≈ 40 µM)	> 100	50 (≈ 200 µM)	–	–	–	–	–	EC50 ([3]; Mus musculus, Neuroblastoma cell, 48 h, read-out: EC50 ICP MNA 2 days): 10 µg/mL (≈ 40 µM)
COc1cc2c(c3oc4cccc(O)c4c(=O)c13)[C@@H]1C=CO[C@@H]1O2 [Sterigmatocystin, sterigmatocystin]	–	–	–	–	–	–	–	–	–	–	–	–	–	–	EC50 ICP PK-15 2 days [1]: 0.5 µg dry wt mL^−1; EC50 BSMIM Boar Sperm 20 min (boar spermatozoa [2]): >20 µg dry wt mL^−1; EC50 SMIDM Boar Sperm 2 h (boar spermatozoa [7]): >20 µg dry wt mL^−1
CC(C)[C@@H]1NC(=O)[C@H](C)OC(=O)[C@@H](C(C)C)NC(=O)[C@@H](C(C)C)OC(=O)[C@H](C(C)C)NC(=O)[C@H](C)OC(=O)[C@@H](C(C)C)NC(=O)[C@@H](C(C)C)OC(=O)[C@H](C(C)C)NC(=O)[C@H](C)OC(=O)[C@@H](C(C)C)NC(=O)[C@@H](C(C)C)OC1=O [Valinomycin]	–	–	–	–	5	5	14 (≈ 12.6 µM)	0.0001 (≈ 9e-05 µM)	70 (≈ 63 µM)	0.005 (≈ 0.0045 µM)	0.005 (≈ 0.0045 µM)	5	0.05 (≈ 4.5e-05 µM)	0.05 (≈ 4.5e-05 µM)	EC50 (resting boar spermatozoa [5]; 96 h, JC-1, 4 days, read-out: EC50 Sublethal Toxicity Depletion of ΔΨm 4 days): 0.05 ng/mL (≈ 4.5e-05 µM); EC50 (resting boar spermatozoa [6]; 96 h, 4 days, read-out: EC50 Sublethal Toxicity BSMIR 4 days): 0.05 ng/mL (≈ 4.5e-05 µM)
CC(C)[C@H]1C(=O)O[C@H](C(C)C)C(=O)N(C)[C@@H](C(C)C)C(=O)O[C@H](C(C)C)C(=O)N(C)[C@@H](C(C)C)C(=O)O[C@H](C(C)C)C(=O)N1C [Enniatin B]	–	–	–	–	–	50	–	–	–	5 (≈ 7.81 µM)	5 (≈ 7.81 µM)	> 50	5000 (≈ 7.81 µM)	5000 (≈ 7.81 µM)	–
